How the values were obtained:
[1] = In vitro release study, Automated Franz Diffusion Cell System, Higuchi model fit; assay type: physicochemical; details: 37° C., PBS pH7.4, 24 hours, regenerated cellulose membrane
Experimental: Four different samples were run in 6 diffusate chamber volume of 4 ml […] PBS solution at pH7.4, with 0.6362 cm^2 effective diffusion area, under 400 rpm stirring and circulation of water bath at 37±1° C. throughout the experiments. Approximately 500 mg of each sample was loaded on the regenerated cellulose membrane surface (5000 Da molecular weight cut-off) in the retentate compartment, which was pre-soaked overnight, to be evaluated for 24 hours. At predetermined intervals, samples were withdrawn to be determined spectrophotometrically for the drug content and replaced with fresh receiving medium. The calculations are done based on average of six measurements from six different retentate compartments.

[2] = log P of the compound used / encapsulated; cited from earlier work

| SMILES | Slope (release rate, Higuchi Model) ([1]; In NLC (NLC-1, NLC-2, NLC-3)) | Slope (release rate, Higuchi Model) ([1]; In cream (C1, C2, C3)) | Slope (release rate, Higuchi Model) ([1]; In solution (A1, A2, A3)) | Log P [2] |
| --- | --- | --- | --- | --- |
| CN(C)c1ccc2cc3ccc(N(C)C)cc3nc2c1 [Acridine orange, acridine orange] | 0.43 | 4.12 | 19.15 | – |
| O=S(=O)(O)c1cc2cc(S(=O)(=O)O)c(N=Nc3ccccc3[As](=O)(O)O)c(O)c2c(O)c1N=Nc1ccccc1[As](=O)(O)O [Arsenazo III, arsenazo III] | 8.93 | 11.48 | 19.25 | 0.49 |
